The record followed here is patent publication US20240076314A1 (priority 2020, published 2024).

SMILES strings stand for the structures. Where a SMILES comes first, the peptide text is derived from it. Bridges are numbered along the chain shown (N, C = ends).

The assay concerns the target human nAChR (hnAChR α1/β1/γ/ε-HEK 293 Recombinant Cell Line) (Homo sapiens, UniProt P02708+Q04844+Q07001). The assay can be described thus: cell-based.

human nAChR (hnAChR α1/β1/γ/ε-HEK 293 Recombinant Cell Line), sequence (P02708 whole entry, looked up): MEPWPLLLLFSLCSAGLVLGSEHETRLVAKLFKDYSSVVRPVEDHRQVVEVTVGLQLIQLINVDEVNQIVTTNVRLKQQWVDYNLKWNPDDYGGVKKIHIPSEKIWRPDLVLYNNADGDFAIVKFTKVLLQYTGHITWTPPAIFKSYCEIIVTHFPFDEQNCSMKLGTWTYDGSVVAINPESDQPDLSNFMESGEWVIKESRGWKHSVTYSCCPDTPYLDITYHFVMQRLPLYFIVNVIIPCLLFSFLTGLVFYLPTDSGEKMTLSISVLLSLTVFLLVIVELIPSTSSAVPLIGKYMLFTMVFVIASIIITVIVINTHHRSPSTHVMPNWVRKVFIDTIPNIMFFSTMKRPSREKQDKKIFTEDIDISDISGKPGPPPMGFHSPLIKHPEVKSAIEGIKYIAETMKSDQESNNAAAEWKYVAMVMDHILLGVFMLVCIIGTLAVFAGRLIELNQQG
human nAChR (hnAChR α1/β1/γ/ε-HEK 293 Recombinant Cell Line), sequence (Q04844 whole entry, looked up): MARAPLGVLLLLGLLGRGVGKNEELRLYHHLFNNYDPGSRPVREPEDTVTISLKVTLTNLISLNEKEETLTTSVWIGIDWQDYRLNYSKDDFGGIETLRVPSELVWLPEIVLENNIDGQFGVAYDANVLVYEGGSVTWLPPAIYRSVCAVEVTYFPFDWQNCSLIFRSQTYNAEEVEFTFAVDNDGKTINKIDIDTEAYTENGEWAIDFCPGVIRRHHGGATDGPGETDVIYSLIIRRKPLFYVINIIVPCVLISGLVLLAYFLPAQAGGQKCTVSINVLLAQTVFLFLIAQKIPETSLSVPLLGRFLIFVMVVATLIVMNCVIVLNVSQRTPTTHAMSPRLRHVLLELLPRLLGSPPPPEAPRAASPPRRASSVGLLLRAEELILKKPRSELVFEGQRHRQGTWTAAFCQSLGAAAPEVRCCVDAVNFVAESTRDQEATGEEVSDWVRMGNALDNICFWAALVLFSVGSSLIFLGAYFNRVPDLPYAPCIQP
human nAChR (hnAChR α1/β1/γ/ε-HEK 293 Recombinant Cell Line), sequence (Q07001 whole entry, looked up): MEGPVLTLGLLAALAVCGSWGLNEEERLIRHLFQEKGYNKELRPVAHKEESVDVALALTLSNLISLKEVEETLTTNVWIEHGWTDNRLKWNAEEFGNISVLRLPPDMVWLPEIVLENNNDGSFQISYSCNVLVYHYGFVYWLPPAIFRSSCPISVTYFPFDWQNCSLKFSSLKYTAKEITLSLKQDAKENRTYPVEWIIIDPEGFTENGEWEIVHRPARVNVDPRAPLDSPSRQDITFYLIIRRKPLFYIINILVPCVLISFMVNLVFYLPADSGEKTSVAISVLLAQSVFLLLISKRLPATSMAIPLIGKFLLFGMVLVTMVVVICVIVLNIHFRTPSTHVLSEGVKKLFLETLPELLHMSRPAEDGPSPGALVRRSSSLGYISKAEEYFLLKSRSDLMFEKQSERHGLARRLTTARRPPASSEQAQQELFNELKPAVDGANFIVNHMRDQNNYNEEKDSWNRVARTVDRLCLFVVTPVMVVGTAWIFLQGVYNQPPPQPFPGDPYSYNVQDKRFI

Broadly, the IC50 is the concentration that gives 50% inhibition. For `CC(=O)N[C@H]1CSSC[C@@H]2NC(=O)[C@H](C)NC(=O)[C@@H]3CCCN3C(=O)[C@H](CC(N)=O)NC(=O)[C@H](CSSC[C@@H](C(N)=O)NC(=O)[C@H](CO)NC(=O)[C@H](Cc3ccc(O)cc3)NC(=O)[C@H](CC(N)=O)NC(=O)[C@H](CCCCN)NC(=O)CNC2=O)NC1=O` [SEQ ID NO: 60, Ac-Cys-Cys-Asn-Pro-Ala-Cys-Gly-Lys-Asn-Tyr-Ser-Cys-NH2] (Ac-CCNPACGKNYSC-NH2; disulfide 1-6, 2-12), the IC50 was > 100 nM.

Regarding `CC(=O)N[C@H]1CSSC[C@@H]2NC(=O)[C@H](C)NC(=O)[C@@H]3CCCN3C(=O)[C@H](CC(N)=O)NC(=O)[C@H](CSSC[C@@H](C(N)=O)NC(=O)[C@H](CCCCN)NC(=O)[C@H](Cc3ccc(O)cc3)NC(=O)[C@H](CC(N)=O)NC(=O)[C@H](CCCCN)NC(=O)CNC2=O)NC1=O` [SEQ ID NO: 62, Ac-Cys-Cys-Asn-Pro-Ala-Cys-Gly-Lys-Asn-Tyr-Lys-Cys-NH2] (Ac-CCNPACGKNYKC-NH2; disulfide 1-6, 2-12), the IC50 was > 100 nM.
